The values below come from patent publication US8551963B2, “Imidazolothiazole compounds and methods of use thereof” (Ambit Biosciences Corporation, priority 2008, dated 2013).

Data set [1] can be described thus: Aqueous and surfactant solubility. The data set is classed as physicochemical. Conditions: room temperature overnight.
The next data set has as its system plasma protein. Briefly: Plasma protein binding assay (equilibrium dialysis). The data set is classed as in vitro ADME. The conditions noted are these: 1 μM, equilibrium dialysis 16-20 hours at 37° C. Here is the method:
Reagents: 1× Isotonic PBS (Mediatech, Inc., Herndon, Va.); 96 Well Equilibrium Dialyzer (Harvard Apparatus, Holliston, Mass.) and Animal plasma from species of interest.
1 μM solutions of test compound were prepared in both isotonic PBS and 10% animal plasma in isotonic PBS.
200 μl of each test solution was added to opposite sides of the equilibrium dialysis membrane.
Samples were incubated for 16-20 hours at 37° C.
After incubation, 100 μl sample was removed from the PBS side and diluted with 100 μl of 20% animal plasma in PBS.
100 μl sample was removed from the 10% animal plasma side and diluted with 100 μl of 10% animal plasma.
A calibration curve was prepared in 10% animal plasma to extrapolate unknown concentrations.
Samples were analyzed by LC/MS/MS.
50 μl of samples, calibration standards and quality control standards were extracted with 100 μl of acetonitrile containing 25 ng/ml of internal standard.
Calculations Calculate fraction unbound in 10% plasma Fu(10%)=1−(PC−PF)/PC) Convert 10% plasma value to 100% Fu(100%)=Fu10%/(10−9*Fu10%).
For orientation: Equilibrium dialysis compares concentrations on both sides of a semipermeable membrane.

The next data set addresses P-Glycoprotein (Homo sapiens (Human), UniProt P08183). Briefly: Digoxin bidirectional MDR1-MDCK permeability, Compound I-1 as an inhibitor. Conditions: dog; for Papp A→B at 1 μM: MDCK-MDR1, pH 7.4, Digoxin PeAP→BL; for Papp B→A at 1 μM: MDCK-MDR1, pH 7.4, Digoxin PeBL→AP.
Data set [2] can be described thus: Microsomal stability and metabolic turnover, pooled rat liver microsomes. The conditions noted are these: pH 7.4. In general terms: Liver microsomes are vesicles of endoplasmic reticulum, rich in cytochrome P450 enzymes.
A short description of data set [3]: Microsomal stability and metabolic turnover, pooled dog liver microsomes. The conditions noted are these: pH 7.4.
A short description of data set [4]: Microsomal stability and metabolic turnover, pooled Cynomolgus monkey liver microsomes. The conditions noted are these: pH 7.4.
Data set [5] can be described thus: Microsomal stability, pooled mouse liver microsomes. Conditions: pH 7.4. The data set is classed as in vitro ADME. Here is the method:
Microsomes were stored at −80° C. prior to use.
The final incubation volume was 600 μL.
The elimination rate constant (k)=(−slope)

A short description of data set [6]: Microsomal stability and metabolic turnover, pooled human liver microsomes. Conditions: both, pH 7.4.
Another data set relates to MDR1-MDCK cells. Conditions: dog, MDCK-MDR1, 10 μM, pH 7.4.
A further data set has as its system P-glycoprotein (MDR1). Description: in vitro. Conditions: dog.
Data set [7] in a line: in vitro. The conditions noted are these: rat, microsomes, pH 7.4.
A further data set can be described thus: In vivo clearance, dog. An excerpt:
(§1) Clearance was modest in dog microsomes, and high in Cynomolgus monkey microsomes. Using a comparison of in vitro and in vivo clearance, human clearance can be predicted. The in vitro intrinsic clearance is influenced by animal weight, hepatic blood flow, relative liver weight, and amount of protein/liver weight. […] Human clearance is predicted to be low (Table 2).

The nature of a further data set: In vivo clearance, rat.
From the text: as §1

A short description of data set [8]: in vitro. The conditions noted are these: both, human, microsomes, pH 7.4.
A short description of data set [9]: Predicted human in vivo clearance. Conditions: predicted from comparison of in vitro and in vivo clearance.
From the text: as §1

Another data set concerns MV4;11 cells. Briefly: MV4;11 cellular proliferation assay (Cell Titer Blue). The data set is classed as cell-based. The conditions noted are these: Homo sapiens, MV4-11, 72 h, read-out: EC50 (50% inhibition of cellular proliferation). On the technique in general: Alamar Blue is a resazurin reagent that responds to reducing activity.
A short description of data set [10]: in vitro. Conditions: monkey, microsomes, pH 7.4.
For data set [11] the following is noted: dog, microsomes, 1 μM, pH 7.4.
The nature of data set [12]: in vitro. Conditions: dog, microsomes.
A further data set concerns RS4;11 cells. Briefly: RS4;11 cellular proliferation assay (Cell Titer Blue). The data set is classed as cell-based. The conditions noted are these: Homo sapiens, RS4-11, 48 h, read-out: EC50 (50% inhibition of cellular proliferation).
Data set [13] can be described thus: In vivo clearance, monkey.
From the text: as §1

A further data set is described as follows: In vivo clearance, mouse. Conditions: clearance call in words.
From the text: as §1

[14] abbreviates: Table 17, Digoxin 1 μM alone, Std.
Where [15] appears, read: Table 17, Digoxin 1 μM alone, Surf.
Setting [16] is: preliminary experiment, Digoxin 1 μM alone, Std.
The mark [17] stands for this setting: preliminary experiment, Digoxin 1 μM alone, Surf.
Where [18] appears, read: in vivo, read-out: In Vivo t1/2 (converted).

Values after ≈ are worked out from the molar mass of the structure shown. Structures can show the parent of a compound that is named as a salt. Where two headings read alike, the source gives them in different places.

By solubility is commonly meant the concentration that dissolves in the medium under given conditions. For orientation: Papp A→B means how fast a substance crosses the layer from the apical side. In general, Papp B→A refers to the apparent permeability from the basolateral to the apical side of a cell layer. In general, efflux ratio refers to the permeability from basolateral to apical divided by that in the opposite direction, in the common usage. As usually defined, the microsomal CLint is the capacity of the preparation to metabolise the compound, expressed as a volume cleared per time.

Sequence of P-Glycoprotein (P08183 whole entry): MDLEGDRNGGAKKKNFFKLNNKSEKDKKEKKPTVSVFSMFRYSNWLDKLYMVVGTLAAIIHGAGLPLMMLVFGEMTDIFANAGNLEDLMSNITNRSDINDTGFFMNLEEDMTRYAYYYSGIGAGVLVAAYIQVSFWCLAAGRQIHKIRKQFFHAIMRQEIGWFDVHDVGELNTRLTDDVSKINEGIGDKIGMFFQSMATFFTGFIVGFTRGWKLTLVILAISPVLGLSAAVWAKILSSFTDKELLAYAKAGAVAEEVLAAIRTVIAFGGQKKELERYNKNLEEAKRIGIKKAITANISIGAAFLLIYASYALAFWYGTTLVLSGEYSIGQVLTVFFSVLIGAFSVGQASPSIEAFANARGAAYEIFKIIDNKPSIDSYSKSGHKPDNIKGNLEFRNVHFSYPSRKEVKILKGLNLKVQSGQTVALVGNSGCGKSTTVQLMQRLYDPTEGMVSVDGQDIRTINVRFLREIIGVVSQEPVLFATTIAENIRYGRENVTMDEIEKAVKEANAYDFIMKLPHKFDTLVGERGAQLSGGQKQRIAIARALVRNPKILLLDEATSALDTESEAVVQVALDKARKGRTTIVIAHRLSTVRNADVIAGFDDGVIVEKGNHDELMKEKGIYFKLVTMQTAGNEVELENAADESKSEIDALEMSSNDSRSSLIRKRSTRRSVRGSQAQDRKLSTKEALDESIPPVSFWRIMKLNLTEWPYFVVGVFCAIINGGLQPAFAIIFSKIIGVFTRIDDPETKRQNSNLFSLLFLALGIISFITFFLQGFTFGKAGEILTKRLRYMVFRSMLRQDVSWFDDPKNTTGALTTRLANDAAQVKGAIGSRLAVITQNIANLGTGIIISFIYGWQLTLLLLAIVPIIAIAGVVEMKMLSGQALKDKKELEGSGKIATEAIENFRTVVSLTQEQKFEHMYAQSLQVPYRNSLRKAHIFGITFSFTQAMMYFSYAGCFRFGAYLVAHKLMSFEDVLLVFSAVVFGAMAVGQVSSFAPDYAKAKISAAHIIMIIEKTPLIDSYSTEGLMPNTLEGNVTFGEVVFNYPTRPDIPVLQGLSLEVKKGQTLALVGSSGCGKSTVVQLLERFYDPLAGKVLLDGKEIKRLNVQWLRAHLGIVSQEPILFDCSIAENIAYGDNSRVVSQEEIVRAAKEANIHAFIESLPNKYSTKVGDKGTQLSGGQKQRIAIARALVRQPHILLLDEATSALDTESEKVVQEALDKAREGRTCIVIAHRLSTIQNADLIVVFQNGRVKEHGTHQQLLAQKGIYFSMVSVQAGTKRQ

As for `COC(=O)[C@H]1[C@H]2C[C@@H]3c4[nH]c5cc(OC)ccc5c4CCN3C[C@H]2C[C@@H](OC(=O)c2cc(OC)c(OC)c(OC)c2)[C@@H]1OC` [Reserpine], the solubility in data set [1] (HBSS buffer with 0.05% Polysorbate 80, pH 7.4, aqueous with cosolvent or surfactant or cyclodextrin, kinetic from dmso stock, HBSS containing 0.05% Polysorbate 80, 2.5% DMSO, read-out: Average Aqueous Solubility, 0.05% Polysorbate 80) is 5 µM (≈ 3.04 µg/mL); in data set [1] (Hank's balanced salt solution (HBSS) buffer, aqueous buffer, kinetic from dmso stock, HBSS pH 7.4, 2.5% DMSO, read-out: Average Aqueous Solubility, pH 7.4), < 1 µM.

Regarding `CC(C)(C)c1cc(NC(=O)Nc2ccc(-c3cn4c(n3)sc3cc(OCCN5CCOCC5)ccc34)cc2)no1` [Compound IA, hydrochloride salt, N-(5-tert-butyl-isoxazol-3-yl)-N′-{4-[7-(2-morpholin-4-yl-ethoxy)imidazo[2,1-b][1,3]benzothiazol-2-yl]phenyl}urea, reference compound], the “Percentage of unbound compound in 10% plasma” value in the data set with plasma protein turned out to be 17%.

With `C[C@H]1O[C@@H](O[C@H]2[C@@H](O)C[C@H](O[C@H]3[C@@H](O)C[C@H](O[C@H]4CC[C@@]5(C)[C@H](CC[C@@H]6[C@@H]5C[C@@H](O)[C@]5(C)[C@@H](C7=CC(=O)OC7)CC[C@]65O)C4)O[C@@H]3C)O[C@@H]2C)C[C@H](O)[C@@H]1O` [Digoxin, reference compound], the Papp A→B at 1 μM was found to be 8.76 ×10⁻⁶ cm/s at P-Glycoprotein (setting [14]), 2.21 ×10⁻⁶ cm/s at P-Glycoprotein (setting [15]), 0.24 ×10⁻⁶ cm/s on P-Glycoprotein (setting [16]) and 2.91 ×10⁻⁶ cm/s at P-Glycoprotein (setting [17]). Further, the Papp B→A at 1 μM on P-Glycoprotein (setting [14]) was found to be 29.3 ×10⁻⁶ cm/s; on P-Glycoprotein (setting [15]), 4.93 ×10⁻⁶ cm/s; on P-Glycoprotein (setting [16]) it was 20 ×10⁻⁶ cm/s; at P-Glycoprotein (setting [17]) it was 6.03 ×10⁻⁶ cm/s.

On to `CC(=O)N1CCN(c2ccc(OCC3COC(Cn4ccnc4)(c4ccc(Cl)cc4Cl)O3)cc2)CC1` (stereo not drawn) [Ketoconazole], for which the solubility in [1] (HBSS containing 0.05% Polysorbate 80, 2.5% DMSO, read-out: Average Aqueous Solubility, 0.05% Polysorbate 80) amounted to 86 µM (≈ 45.7 µg/mL); in data set [1] (HBSS pH 7.4, 2.5% DMSO, read-out: Average Aqueous Solubility, pH 7.4) it was 18 µM (≈ 9.57 µg/mL).

As to `C[C@]12CC[C@H]3[C@@H](CCC4=CC(=O)CC[C@@]43C)[C@@H]1CC[C@@H]2O` [Testosterone], the half-life at 1 μM in data set [2] was determined as 4 min; in data set [3], 60 min; in data set [4] it was 3 min; in data set [5] (mouse liver microsomes, 1 μM, 0.5 mg/mL, NADPH, read-out: Half-life), 6 min; in [6], 11 min.

On to `CNC(=C[N+](=O)[O-])NCCSCc1ccc(CN(C)C)o1` [Ranitidine], for which, in the data set on MDR1-MDCK cells, the “Assymetry Index” value was 1.9, the PeAP→BL worked out at 1.63 ×10⁻⁶ cm/s and the PeBL→AP stood at 3.02 ×10⁻⁶ cm/s.

With `CC(C)NCC(O)COc1cccc2[nH]ccc12` (stereo not drawn) [Pindolol], the efflux ratio at 10 μM in the data set on P-glycoprotein (MDR1) (MDCK-MDR1, pH 7.4, Assymetry Index) amounted to 1. The molecule also showed a Papp A→B at 10 μM in the data set with P-glycoprotein (MDR1) (MDCK-MDR1, pH 7.4, PeAP→BL) of 31.7 ×10⁻⁶ cm/s. This molecule returned an apparent permeability from basolateral to apical (Papp B→A) at 10 μM in the data set with P-glycoprotein (MDR1) (MDCK-MDR1, pH 7.4, PeBL→AP) of 30.6 ×10⁻⁶ cm/s.

Take `CC(C)(C)c1cc(NC(=O)Nc2ccc(-c3cn4c(n3)sc3cc(OCCN5CCOCC5)ccc34)cc2)no1` [Compound IA, N-(5-tert-butyl-isoxazol-3-yl)-N′-{4-[7-(2-morpholin-4-yl-ethoxy)imidazo[2,1-b][1,3]benzothiazol-2-yl]phenyl}urea]: the half-life at 1 μM was > 60 min in the data set “in vitro [7]”; > 60 min in the data set “in vitro [8]”; 19 min in the data set “in vitro [10]”; 33 min in the data set “in vitro [12]” (pH 7.4, Half-life); > 60 min in data set [5] (mouse, microsomes). The microsomal CLint at 1 μM in “in vitro [7]” was < 23 µL/min/mg; in “in vitro [8]”, < 23 µL/min/mg; in “in vitro [10]” it was 73 µL/min/mg; in “in vitro [12]” (pH 7.4), 42 µL/min/mg; in data set [5] (mouse, microsomes) it was < 23 µL/min/mg. The “In Vivo Cl” value in “In vivo clearance, dog” (clearance call in words) is “Modest”; in the data set “In vivo clearance, rat” (clearance call in words), “Low”; in data set [9], “low and Low”; in [13] (clearance call in words) it was “High”; in the data set “In vivo clearance, mouse”, “Low”. The half-life in the data set “In vivo clearance, dog” (setting [18]) was 366 min; in the data set “In vivo clearance, rat” (setting [18]), 414 min; in data set [11], 24 min; in data set [13] (setting [18]), 162 min. The values for the EC50 in the data set with MV4;11 cells and in the data set on RS4;11 cells were 0.6 nM and 4 nM, respectively.
